Source: patent US20230381213A1, “SYNTHESIS AND USES OF GINSENOSIDE COMPOUND K DERIVATIVES” (The University of Hong Kong, priority 2022, published 2023)
Like-named read-outs stand apart in the source and are kept apart here.

Assays:
MHCC97-L cells = experiment: MTT cytotoxicity in MHCC97-L cells; assay type: cell-based; settings: MHCC97L; MHCC97-L liver cancer, 72 hours
PRELID1 [1] = biological target: T1, PRELID1 (Homo sapiens, UniProt Q9Y255); experiment: Proteome integral solubility alteration (PISA) in cells; assay type: cell-based; settings: in cell
T1 construct: endogenous in cells; host or cells: A549
Description: Two label free chemical proteomics, proteome integral […] alteration assay (PISA) and ProtargetMiner (PTM) are alternative strategies to study CK and CKD-4. PISA is a turbo-charged method development of thermal proteome profiling (TPP) which based on the principle that ligand induced stability of proteins is observed upon a temperature increase. PTM is used to contrast the proteome signature of CK and CKD-4 against the PTM database to reveal their mode of action. FIGS. 9A and 9B provide an overview of the PISA results in cells with CK and CKD-4, where data is shown as a volcano plot with the X-axis as log2 ΔSm of drug over DMSO treatment and the Y-axis as log 10 p-value. In FIGS. 10 and 11 the PTM result of CK and CKD-4 in cells are compared to 9 other anti-cancer drugs in A549 cells in the database and is plotted for OPLS-DA analysis.
(§1) Most probable target candidate proteins are ranked in PISA based on the absolute value of log2 ΔSm of drug relative to DMSO treatment and PTM ranking are based on the log2 fold change of drug over DMSO treatment. The rankings of two experiments are summed to provide a list of candidate drug targets.

Hela cells = experiment: MTT cytotoxicity in Hela cells; assay type: cell-based; settings: Homo sapiens; Hela cervical cancer, 72 hours
A549 cells [2] = experiment: Cell viability with phosphatidylglycerol (PG) supplement, NBB assay; assay type: cell-based; settings: 24 hours, PG supplemented DMEM versus DMEM
Method: FIG. 15C is a bar chart of the cell viability of A549 after treatment with 100 μM of CK or 12.5 μM of CKD-4 for 24 hours in DMEM or phosphatidylglycerol (PG) supplemented DMEM as mean±SD, ***P≤0.001.
(§2) PRELID3b and PRELID1 are PRELI proteins. These proteins and TRIAP1 locate within the inter membrane space responsible for the regulation of phospholipid metabolism. Therefore, a cardiolipin probe is used to measure levels of mitochondrial cardiolipin after drug treatment. […] A decreased level of cardiolipin in PRELI or TRIAP1 depleted cells appears to accelerate the release of cytochrome c, rendering cells vulnerable to apoptosis. […] Cardiolipin is synthesized by a series of steps with phosphatidylglycerol (PG) as the precursor of last step catalyzing by cardiolipin synthase.

A549 cells [3] = experiment: Cytotoxicity in A549 cells; assay type: cell-based; settings: Homo sapiens
NCI-H1650 cells = experiment: Cytotoxicity in NCI-H1650 cells; assay type: cell-based; settings: Homo sapiens
A549 cells [4] = experiment: Apoptosis by flow cytometry (Annexin V-FITC / propidium iodide); assay type: cell-based; settings: 48 hours
Method: (§3) The effect of CK and CKD-4 on cell apoptosis and cell death is indicated by A549 cells treated with 60 μM of CK and 20 μM of CKD-4 for 48 hours that are analyzed by flow cytometry. […] Angiogenesis is another hallmark of cancer which plays an important role in metastasis and tumor growth. […] Cancer stem cells, owing to their ability of self-renewal, have become the major reason for relapse of tumor and poor prognosis. The efficacy of CKD-4 in lung cancer patient derived organoid is indicated using CellTiterGlo assay, where three state of the art clinical anti-cancer drugs, carboplatin, cisplatin, and paclitaxel are a positive control. The dosage of these three drugs is sufficient to trigger a 30% inhibition of cell viability. FIG. 6 and FIG. 7 indicated less than 30% suppression of cell viability is observed with treatment of 20 μM CKD-4.

PRELID3b = biological target: T2, PRELID3b (Homo sapiens, UniProt Q9Y3B1); experiment: Cellular thermal shift assay by western blotting, PRELID3b; assay type: cell-based; settings: A549 cells, one hour
T2 construct: endogenous in cells; host or cells: A549
Method: A549 cells were treated with 50 μM of CK or 15 uM of CKD-4 for one hour, where eight lysate aliquots were heated to indicated temperature.
as §1

SW480 cells = experiment: MTT cytotoxicity in SW480 cells; assay type: cell-based; settings: Homo sapiens; SW480 colon cancer, 72 hours
NCI-H460 cells [5] = experiment: MTT cytotoxicity in NCI-H460 cells
MS 1 cells = experiment: Tube formation (angiogenesis) on Matrigel; assay type: cell-based; settings: 4 hours
Method: as §3

[6] = tested on: cardiolipin in A549 cells; experiment: Mitochondrial cardiolipin quantification with cardiolipin probe; assay type: cell-based; settings: 24-hour treatment
Method: FIG. 15A is a bar chart of the CK and CKD-4 induced apoptosis by quantification of cardiolipin in mitochondrial after treatment with CK or CKD-4 for 24 hours in A549 cells as mean±SD, **, P≤0.01, *, P≤0.05.
as §2

HepG2 cells = experiment: MTT cytotoxicity in HepG2 cells; assay type: cell-based; settings: Homo sapiens; HepG2 liver cancer, 72 hours
NCI-H460 xenografts = NCI-H460 xenografts in nude mice; assay type: in vivo; settings: 5 mg/kg intravenous once every two days; for Tumor volume: versus solvent control
PRELID3b-TRIAP1-MBP = biological target: T3, PRELID3b-TRIAP1-MBP (Homo sapiens, UniProt Q9Y3B1); experiment: Biolayer interferometry with his tag PRELID3b-TRIAP1-MBP; assay type: binding; settings: for Kd: steady-state analysis, 1:1
T3 construct: made in house
Description: To validate the docking analysis, biolayer interferometry (BLI) was employed to measure the interaction between PRELID3b and CK or CKD-4. The recombinant protein was purified by co-expression of PRELID3b with a hexa-histidine tag and the p53 regulated protein, TRIAP1 conjugated with maltose binding protein (MBP). The reported crystal structure of RELID3b is in complex with TRIAP1 and they form as a swapped dimer. PRELID3b is intrinsically unstable in the absence of TRIAP1 and easily degraded by mitochondrial protease. Maltose binding protein (MBP) is a necessary component to improve the solubility of the whole protein complex.
(§4) The sensor used is coated with Ni NTA so that proteins with the hexa-histidine tag could be immobilized on the sensor. After immobilization with protein, the sensor was incubated with the compounds at different concentrations in an ascending order. Both the stoichiometry of CK or CKD-4 with PRELID3b is in a 1:1 ratio but the kinetic modes for the two cases are different. […] The result is consistent with the docking analysis showing that the interaction between CKD-4 and PRELID3b is stronger than with CK.

[7] = tested on: CCD-19Lu lung normal fibroblast; experiment: Cytotoxicity in lung normal fibroblast CCD-19Lu; assay type: cell-based; settings: Homo sapiens
[8] = tested on: cytochrome c release in A549 cells; experiment: Cytochrome c in cytosol fractions, western blotting; assay type: cell-based; settings: for Level of cytochrome c in cytosol: 24-hour treatment; for Cytochrome c release with PG in medium: 24 hours, with PG versus without PG
Description: as §2

MBP = MBP (Escherichia coli, UniProt P0AEX9); experiment: Biolayer interferometry with his tag MBP (control); assay type: binding; settings: various concentrations
Method: as §4

PRELID1 [9] = biological target: T1, PRELID1; experiment: Cellular thermal shift assay by western blotting, PRELID1; assay type: cell-based; settings: A549 cells, one hour
Method: A549 cells were treated with 50 μM of CK or 15 μM of CKD-4 for one hour, where eight lysate aliquots were heated to indicated temperature.
as §1

Solubility = assay type: physicochemical; settings: even in dimethyl sulfoxide (DMSO)
[10] = tested on: lung cancer patient derived organoid; experiment: Lung cancer patient derived organoid viability, CellTiterGlo; assay type: cell-based; settings: 72 hours
Method: as §3

A549 cells [11] = assay type: in vitro ADME; settings: human, 10 μM
Description: To explore the stability of CKD-4, the amount of CK in CKD-4 treated A549 cells was also quantified.

NCI-H460 cells [12] = tested on: NCI-H460 cells
[13] = A549, 24 h, read-out: IC50 24 h
[14] = A549, 48 h, read-out: IC50 48 h
[15] = A549, 72 h, read-out: IC50 72 h
[16] = NCI-H1650, 24 h, read-out: IC50 24 h
[17] = NCI-H1650, 48 h, read-out: IC50 48 h
[18] = NCI-H1650, 72 h, read-out: IC50 72 h
[19] = Homo sapiens, NCI-H460, 24 h, read-out: IC50 24 h
[20] = Homo sapiens, NCI-H460, 48 h, read-out: Cytotoxicity IC50
[21] = Homo sapiens, NCI-H460, 72 h, read-out: IC50 72 h

T3 sequence (Q9Y3B1 whole entry): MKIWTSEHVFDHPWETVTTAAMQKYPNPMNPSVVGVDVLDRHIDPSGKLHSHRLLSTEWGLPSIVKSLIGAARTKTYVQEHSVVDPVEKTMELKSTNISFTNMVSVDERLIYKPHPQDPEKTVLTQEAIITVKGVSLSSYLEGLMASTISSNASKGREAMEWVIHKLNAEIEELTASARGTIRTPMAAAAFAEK
T1 sequence (Q9Y255 whole entry): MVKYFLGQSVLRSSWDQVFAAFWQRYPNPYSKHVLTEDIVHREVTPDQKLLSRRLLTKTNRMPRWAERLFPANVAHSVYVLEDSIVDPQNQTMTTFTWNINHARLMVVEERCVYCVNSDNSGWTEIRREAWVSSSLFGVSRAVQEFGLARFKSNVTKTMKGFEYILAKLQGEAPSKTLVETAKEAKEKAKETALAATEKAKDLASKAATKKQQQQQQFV
T1 sequence (O43715 whole entry partner): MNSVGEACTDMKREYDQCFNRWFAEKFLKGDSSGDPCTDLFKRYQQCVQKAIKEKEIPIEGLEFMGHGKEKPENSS
T2 sequence (Q9Y3B1 whole entry): as the sequence (Q9Y3B1 whole entry) above
T2 sequence (O43715 whole entry partner): as the sequence (O43715 whole entry partner) above

CC(C)=CCC[C@](C)(OC1O[C@H](CO)[C@@H](O)[C@H](O)[C@H]1O)C1CC[C@]2(C)C1[C@H](O)CC1[C@@]3(C)CC[C@H](O)C(C)(C)C3CC[C@]12C (stereo partly drawn) [CK, 20-O-β-(D-glucopyranosyl)-20(S)-protopanaxadiol, reference compound]
IC50 (MHCC97-L cells): 49.8 ± 0.3 µM
PRELID1 stability in PISA (PRELID1 [1]): stabilized
IC50 (Hela cells): 36.2 ± 1.2 µM
Cell viability with supplement of PG (A549 cells [2]; A549, 100 μM): almost two-fold restored
IC50 (A549 cells [3]; [13]): 67.1 ± 4.6 µM
IC50 (A549 cells [3]; [14]): 64 ± 3.3 µM
IC50 (A549 cells [3]; [15]): 59.1 ± 3.4 µM
IC50 (NCI-H1650 cells; [16]): 80.7 ± 3.7 µM
IC50 (NCI-H1650 cells; [17]): 71.3 ± 7.1 µM
IC50 (NCI-H1650 cells; [18]): 59.3 ± 2.8 µM
Percentage of apoptotic cells (A549 cells [4]; A549, 60 μM): significant increase in the percentage of apoptotic cells
Thermal stability of PRELID3b (CETSA) (PRELID3b; 50 μM): stabilization
IC50 (SW480 cells): 46.2 ± 2.1 µM
IC50 (NCI-H460 cells [5]; [19]): 64.7 ± 9.3 µM
IC50 (NCI-H460 cells [5]; [20]): 53.4 ± 2.4 µM
IC50 (NCI-H460 cells [5]; Homo sapiens, NCI-H460, 72 h, read-out: Cytotoxicity IC50): 45.1 ± 0.4 µM
IC50 (NCI-H460 cells [5]; [21]): 40.5 ± 0.9 µM
Formation of tube (MS 1 cells; 40 μM): inhibited
Amount of mitochondrial cardiolipin [6]: decreased significantly
IC50 (HepG2 cells): 43.6 ± 1.6 µM
Body weight (NCI-H460 xenografts): No significant change in body weight
Tumor volume (NCI-H460 xenografts): almost no difference
Kinetic mode (on/off rate) (PRELID3b-TRIAP1-MBP): fast on/off rate
Kd (PRELID3b-TRIAP1-MBP): 55.7 µM
IC50 ([7]; 24 h, read-out: IC50 24 h): 73.6 ± 3.4 µM
IC50 ([7]; 48 h, read-out: IC50 48 h): 63.1 ± 2.7 µM
IC50 ([7]; 72 h, read-out: IC50 72 h): 42.3 ± 1.5 µM
Level of cytochrome c in cytosol ([8]; 50 μM): dramatically enhanced
Cytochrome c release with PG in medium ([8]; 50 μM): not observed
Response with MBP (MBP): no does-dependent response
Thermal stability of PRELID1 (CETSA) (PRELID1 [9]; 50 μM): stabilization

CC(=O)OCC1OC(OC(C)(CCC=C(C)C)C2CCC3(C)C2C(OC(C)=O)CC2C4(C)CCC(OC(C)=O)C(C)(C)C4CCC23C)C(OC(C)=O)C(OC(C)=O)C1OC(C)=O (centres unmarked) [CKD-1]
Solubility (Solubility): poor solubility
IC50 (NCI-H460 cells [5]; read-out: Cytotoxicity IC50, NCI-H460 cells, 48 h (Table 2)): > 100 µM

COc1ccc(C2OCC3OC(OC(C)(CCC=C(C)C)C4CCC5(C)C4C(O)CC4C6(C)CCC(O)C(C)(C)C6CCC45C)C(O)C(O)C3O2)cc1 (centres unmarked) [CKD-4]
PRELID1 stability in PISA (PRELID1 [1]): stabilized
Cell viability with supplement of PG (A549 cells [2]; A549, 12.5 μM): almost two-fold restored
IC50 (A549 cells [3]; [13]): 30.8 ± 3.7 µM
IC50 (A549 cells [3]; [14]): 23.9 ± 0.9 µM
IC50 (A549 cells [3]; [15]): 17.4 ± 1.2 µM
IC50 (NCI-H1650 cells; [16]): 43.7 ± 4.4 µM
IC50 (NCI-H1650 cells; [17]): 25.1 ± 1.5 µM
IC50 (NCI-H1650 cells; [18]): 20.3 ± 1.1 µM
Percentage of apoptotic cells (A549 cells [4]; A549, 20 μM): significant increase in the percentage of apoptotic cells
Thermal stability of PRELID3b (CETSA) (PRELID3b; 15 uM): stabilization
Suppression of cell viability ([10]; 20 μM, CellTiterGlo): less than 30%
Growth of patient derived organoid ([10]; 5, 10, 20, 35 and 50 μM): significantly inhibits the growth of patient derived organoid in a dose dependent manner
IC50 (NCI-H460 cells [5]; [19]): 23.3 ± 1.4 µM
IC50 (NCI-H460 cells [5]; [20]): 16.5 µM
IC50 (NCI-H460 cells [5]; [21]): 15.4 ± 0.1 µM
Amount of CK found in CKD-4 treated cells (A549 cells [11]; 4 h): 1.33 % of total amount of CKD-4
Amount of CK found in CKD-4 treated cells (A549 cells [11]; 24 h): 1.05 % of total amount of CKD-4
Formation of tube (MS 1 cells; 15 μM): inhibition is more obvious
Cytotoxic potency in comparison with CK (NCI-H460 cells [12]): three-fold more potent
Amount of mitochondrial cardiolipin [6]: decreased significantly
Body weight (NCI-H460 xenografts): No significant change in body weight
Tumor volume (NCI-H460 xenografts): significant tumor volume inhibition
Kd smaller than Kd of CK (PRELID3b-TRIAP1-MBP): ~7 fold
Kinetic mode (on/off rate) (PRELID3b-TRIAP1-MBP): slower
Kd (PRELID3b-TRIAP1-MBP): 5.3 µM
IC50 ([7]; 24 h, read-out: IC50 24 h): 57.5 ± 0.6 µM
IC50 ([7]; 48 h, read-out: IC50 48 h): 25.9 ± 4.4 µM
IC50 ([7]; 72 h, read-out: IC50 72 h): 17.9 ± 2.8 µM
Level of cytochrome c in cytosol ([8]; 15 μM): dramatically enhanced
Cytochrome c release with PG in medium ([8]; 15 μM): Reduced level of cytochrome c was released
Response with MBP (MBP): no does-dependent response
Thermal stability of PRELID1 (CETSA) (PRELID1 [9]; 15 μM): stabilization
